# Test results from ChEMBL document CHEMBL1153552, “Comparative in vitro pharmacodynamics of caspofungin, micafungin, and anidulafungin against germinated and nongerminated Aspergillus conidia” (2008).
# Activity calls are given as the source filed them. The calls are words filed in the database; no cut-off is given here. Numbered stars: 1 amine (or outer) side, 2 acyl side, 3 side chain; on linkers, the order of the positions; unused ones are H or OH. Bridge positions count the residues as written; N and C are the ends. Square brackets hold non-standard residues; d marks the D form. Peptide text beside a SMILES is read from it. * marks the point of attachment. hTyr(3S-OH,4S-OH,3'-OSO3H) = N[C@H](C(=O)O)[C@H](O)[C@@H](O)c1ccc(O)c(OS(=O)(=O)O)c1; Orn(4R-OH,5R-OH) = O=C([C@H](C[C@@H](O)[C@@H](O)N[*:3])N[*:1])[*:2]; Pro(3S-OH,4S-Me) = C[C@H]1CN[C@H](C(=O)O)[C@H]1O; X1 = CCCCCOc1ccc(-c2cc(-c3ccc(C(=O)*)cc3)no2)cc1; Gln(3R-OH) = NC(=O)C[C@@H](O)[C@H](N)C(=O)O; Hyp = O=C(O)[C@@H]1C[C@@H](O)CN1
# What was measured:
# Aspergillus terreus [1] = test: Effect on Aspergillus terreus metabolic activity assessed number of twofold drug dilutions required for germinated fungal metabolic activity to nongerminated fungal metabolic activity; type: functional
# Aspergillus fumigatus [2] = test: Effect on germinated Aspergillus fumigatus metabolic activity assessed as drug concentration at which fungal metabolic activity occurs after 2 hrs by XTT assay; type: functional
# Aspergillus fumigatus [3] = test: Antifungal activity against germinated Aspergillus fumigatus assessed as absence of visual fungal growth at 64 ug/mL; type: functional, organism-based
# Aspergillus flavus [4] = test: Antifungal activity against nongerminated Aspergillus flavus assessed as lowest drug concentration that produced short, stubby and highly branched hyphae after 48 hrs by microscopic analysis; type: functional; settings: read-out: MEC
# Aspergillus flavus [5] = test: Induction of maximal metabolic inhibition in nongerminated Aspergillus flavus assessed as minimal metabolic activity Ymin after 2 hrs by XTT assay; type: functional; design: scale not given: the % may be the effect or the level left
# Aspergillus terreus [6] = test: Antifungal activity against germinated Aspergillus terreus assessed as absence of visual fungal growth at 128 ug/mL; type: functional, organism-based
# Aspergillus fumigatus [7] = test: Effect on nongerminated Aspergillus fumigatus metabolic activity assessed as drug concentration at which fungal metabolic activity occurs after 2 hrs by XTT assay; type: functional
# Aspergillus flavus [8] = test: Antifungal activity against germinated Aspergillus flavus assessed as lowest drug concentration that produced short, stubby and highly branched hyphae after 48 hrs by microscopic analysis; type: functional; settings: read-out: MEC
# Aspergillus fumigatus [9] = test: Antifungal activity against germinated Aspergillus fumigatus assessed as lowest drug concentration that produced short, stubby and highly branched hyphae after 48 hrs by microscopic analysis; type: functional; settings: read-out: MEC
# Aspergillus terreus [10] = test: Effect on nongerminated Aspergillus terreus metabolic activity assessed as drug concentration at which fungal metabolic activity occurs after 2 hrs by XTT assay; type: functional
# Aspergillus terreus [11] = test: Antifungal activity against germinated Aspergillus terreus assessed as absence of visual fungal growth at 64 ug/mL; type: functional, organism-based
# Aspergillus terreus [12] = test: Antifungal activity against germinated Aspergillus terreus assessed as lowest drug concentration that produced short, stubby and highly branched hyphae after 48 hrs by microscopic analysis; type: functional; settings: read-out: MEC
# Aspergillus terreus [13] = test: Ratio of log2 of MEC for germinated Aspergillus terreus to log2 of MEC for nongerminated Aspergillus terreus; type: functional
# Aspergillus terreus [14] = test: Induction of maximal metabolic inhibition in germinated Aspergillus terreus assessed as minimal metabolic activity Ymin after 2 hrs by XTT assay; type: functional; design: scale not given: the % may be the effect or the level left
# Aspergillus flavus [15] = test: Antifungal activity against germinated Aspergillus flavus assessed as absence of visual fungal growth at 64 ug/mL; type: functional, organism-based
# Aspergillus flavus [16] = test: Effect on Aspergillus flavus metabolic activity assessed number of twofold drug dilutions required for germinated fungal metabolic activity to nongerminated fungal metabolic activity; type: functional
# Aspergillus flavus [17] = test: Antifungal activity against nongerminated Aspergillus flavus assessed as absence of visual fungal growth at 64 ug/mL; type: functional, organism-based
# Aspergillus terreus [18] = test: Effect on germinated Aspergillus terreus metabolic activity assessed as drug concentration at which fungal metabolic activity occurs after 2 hrs by XTT assay; type: functional
# Aspergillus fumigatus [19] = test: Effect on Aspergillus fumigatus metabolic activity assessed number of twofold drug dilutions required for germinated fungal metabolic activity to nongerminated fungal metabolic activity; type: functional
# Aspergillus flavus [20] = test: Antifungal activity against germinated Aspergillus flavus assessed as absence of visual fungal growth at 128 ug/mL; type: functional, organism-based
# Aspergillus terreus [21] = test: Induction of maximal metabolic inhibition in nongerminated Aspergillus terreus assessed as minimal metabolic activity Ymin after 2 hrs by XTT assay; type: functional; design: scale not given: the % may be the effect or the level left
# Aspergillus terreus [22] = test: Antifungal activity against nongerminated Aspergillus terreus assessed as absence of visual fungal growth at 64 ug/mL; type: functional, organism-based
# Aspergillus fumigatus [23] = test: Antifungal activity against germinated Aspergillus fumigatus assessed as absence of visual fungal growth at 128 ug/mL; type: functional, organism-based
# Aspergillus fumigatus [24] = test: Antifungal activity against nongerminated Aspergillus fumigatus assessed as absence of visual fungal growth at 128 ug/mL; type: functional, organism-based
# Aspergillus fumigatus [25] = test: Antifungal activity against nongerminated Aspergillus fumigatus assessed as short, stubby and highly branched hyphae after 48 hrs by microscopy analysis; type: functional, organism-based
# Aspergillus fumigatus [26] = test: Antifungal activity against nongerminated Aspergillus fumigatus assessed as absence of visual fungal growth at 64 ug/mL; type: functional, organism-based
# Aspergillus flavus [27] = test: Effect on germinated Aspergillus flavus metabolic activity assessed as drug concentration at which fungal metabolic activity occurs after 2 hrs by XTT assay; type: functional
# Aspergillus fumigatus [28] = test: Ratio of log2 of MEC for germinated Aspergillus fumigatus to log2 of MEC for nongerminated Aspergillus fumigatus; type: functional
# Aspergillus terreus [29] = test: Antifungal activity against nongerminated Aspergillus terreus assessed as lowest drug concentration that produced short, stubby and highly branched hyphae after 48 hrs by microscopic analysis; type: functional; settings: read-out: MEC
# Aspergillus flavus [30] = test: Effect on nongerminated Aspergillus flavus metabolic activity assessed as drug concentration at which fungal metabolic activity occurs after 2 hrs by XTT assay; type: functional
# Aspergillus terreus [31] = test: Antifungal activity against nongerminated Aspergillus terreus assessed as absence of visual fungal growth at 128 ug/mL; type: functional, organism-based
# Aspergillus fumigatus [32] = test: Induction of maximal metabolic inhibition in germinated Aspergillus fumigatus assessed as minimal metabolic activity Ymin after 2 hrs by XTT assay; type: functional; design: scale not given: the % may be the effect or the level left
# Aspergillus fumigatus [33] = test: Antifungal activity against nongerminated Aspergillus fumigatus assessed as lowest drug concentration that produced short, stubby and highly branched hyphae after 48 hrs by microscopic analysis; type: functional; settings: read-out: MEC
# Aspergillus fumigatus [34] = test: Induction of maximal metabolic inhibition in nongerminated Aspergillus fumigatus assessed as minimal metabolic activity Ymin after 2 hrs by XTT assay; type: functional; design: scale not given: the % may be the effect or the level left
# Aspergillus flavus [35] = test: Induction of maximal metabolic inhibition in germinated Aspergillus flavus assessed as minimal metabolic activity Ymin after 2 hrs by XTT assay; type: functional; design: scale not given: the % may be the effect or the level left
# Aspergillus flavus [36] = test: Ratio of log2 of MEC for germinated Aspergillus flavus to log2 of MEC for nongerminated Aspergillus flavus; type: functional
# Aspergillus flavus [37] = test: Antifungal activity against nongerminated Aspergillus flavus assessed as absence of visual fungal growth at 128 ug/mL; type: functional, organism-based
smiles,measurement,setting,value
"CCCCCOc1ccc(-c2cc(-c3ccc(C(=O)N[C@H]4C[C@@H](O)[C@@H](O)NC(=O)[C@@H]5[C@@H](O)[C@@H](C)CN5C(=O)[C@H]([C@H](O)CC(N)=O)NC(=O)[C@H]([C@H](O)[C@@H](O)c5ccc(O)c(OS(=O)(=O)O)c5)NC(=O)[C@@H]5C[C@@H](O)CN5C(=O)[C@H]([C@@H](C)O)NC4=O)cc3)no2)cc1 [MICAFUNGIN] (X1-[Orn(4R-OH,5R-OH)]T[Hyp][hTyr(3S-OH,4S-OH,3'-OSO3H)][Gln(3R-OH)][Pro(3S-OH,4S-Me)]; lactam 1-C)",Ratio,Aspergillus terreus [1],2.04
same,EC5,Aspergillus fumigatus [2],0.05 µg/mL
same,Activity,Aspergillus fumigatus [3],inactive
same,minimal effective concentration,Aspergillus flavus [4],0.12 µg/mL
same,Activity,Aspergillus flavus [5],17%
same,Activity,Aspergillus terreus [6],inactive
same,EC5,Aspergillus fumigatus [7],0.04 µg/mL
same,minimal effective concentration,Aspergillus flavus [8],0.5 µg/mL
same,minimal effective concentration,Aspergillus fumigatus [9],0.25 µg/mL
same,EC5,Aspergillus terreus [10],0.07 µg/mL
same,Activity,Aspergillus terreus [11],inactive
same,minimal effective concentration,Aspergillus terreus [12],0.25 µg/mL
same,Ratio,Aspergillus terreus [13],1
same,Activity,Aspergillus terreus [14],37%
same,Activity,Aspergillus flavus [15],inactive
same,Ratio,Aspergillus flavus [16],1.57
same,Activity,Aspergillus flavus [17],inactive
same,EC5,Aspergillus terreus [18],0.14 µg/mL
same,Ratio,Aspergillus fumigatus [19],0.67
same,Activity,Aspergillus flavus [20],inactive
same,Activity,Aspergillus terreus [21],29%
same,Activity,Aspergillus terreus [22],inactive
same,Activity,Aspergillus fumigatus [23],inactive
same,Activity,Aspergillus fumigatus [24],inactive
same,Activity,Aspergillus fumigatus [25],Active
same,Activity,Aspergillus fumigatus [26],inactive
same,EC5,Aspergillus flavus [27],0.14 µg/mL
same,Ratio,Aspergillus fumigatus [28],1
same,minimal effective concentration,Aspergillus terreus [29],0.12 µg/mL
same,EC5,Aspergillus flavus [30],0.05 µg/mL
same,Activity,Aspergillus terreus [31],inactive
same,Activity,Aspergillus fumigatus [32],29%
same,minimal effective concentration,Aspergillus fumigatus [33],0.06 µg/mL
same,Activity,Aspergillus fumigatus [34],25%
same,Activity,Aspergillus flavus [35],20%
same,Ratio,Aspergillus flavus [36],2
same,Activity,Aspergillus flavus [37],inactive
